Test results reported in patent publication US12692274B2, “Tetrahydroisoquinoline derivatives for the treatment of red blood disorders and inflammatory diseases” (Sanofi, priority 2020, dated 2026).
“And” between values parts separate entries of the source, which are not always exact repeats. Identical values can stand only once. Like-named read-outs stand apart in the source and are kept apart here.

Assays:
[1] = the molecule shown is the open-chain precursor, rcm bond
[2] = system: NQO1 activation in BEAS-2B cells; assay: BEAS-2B cellular MTT assay of NQO1 activation, 0.3% HSA; assay type: cell-based
Procedure, shortened: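 BEAS-2B cells (<70% confluent in culture, BEBM/SingleQuots without GA-1000) seeded in collagen plates with 0.3% or 0% HSA, reaching 95-100% confluency after 48 h at 37 °C, 5% CO2; MTT read-out.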

[3] = system: NQO1 activation in BEAS-2B cells; assay: BEAS-2B cellular MTT assay of NQO1 activation, 0% HSA; assay type: cell-based
Procedure, shortened: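 BEAS-2B cells grown in BEBM with BEGM SingleQuots (no GA-1000), kept below 70% confluence, seeded on collagen plates at a density giving 95-100% confluence after 48 h. Plates seeded in medium without HSA (0% HSA condition).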

[4] = system: genes of interest (GOI) in HUDEP cells; assay: Gene expression by qPCR in HUDEP cells treated with compound titration; assay type: cell-based; conditions: HbG, read-out: HUDEP HbG EC50 (μM) (Num)
Description: Evaluation of the gene expression by qPCR in HUDEP cells treated with titration of novel compounds. HUDEP Compound Treatment Method
HUDEP cells were plated in 96-well plates, @ 25,000 cells per well in 200 μL of maintenance media. Compounds were added in a 10-point dose response starting at 10 uM with 1/3 dilution scheme using the HP digital diluter. A DMSO control was run to all for normalization of DMSO. The compounds were incubated for 48 hours in 37° C. incubator with 5% CO2. Post incubation, total RNA was isolated using Cells to Ct kit and gene expression was evaluated for genes of interest (GOI) after normalizing to a housekeeping gene. The ΔΔCT was calculated and compared to the DMSO control.
Cell Lysis, Isolation and Gene Expression Materials
Cells to Ct is a kit offered by Applied Biosystems. mRNA prepared using this kit can be directly used for cDNA conversion followed subsequently with qPCR for gene expression analysis
Cell lysis and preparation of RNA: For suspension cells such as HUDEPs, 10,000-100,000 cells (as per kit guidelines) were used for making lysates. The plate was centrifuged at 1500 rpm for 5 mins and the cells were pelleted. Spent medium was removed using a multi-channel pipette. 200 μL ice-cold PBS was added to all treated wells, followed by centrifuging at 1500 rpm for 5 mins 195 μL cold PBS were aspirated from all treatment wells without disturbing the cell monolayer.
To prepare the Cells to CT lysis solution, 49.5 μL of the Cells to CT Lysis Buffer and 0.5 μL/well DNase I (returned DNase I reagent to the −20 C freezer immediately after pipetting) were added to each well. The Cells to CT lysis solution was pipetted to a reservoir and 50 μL were added per well to the treated wells. (Mix 35 μL 5 times without creating bubbles and set timer to 5 mins. At the end of the 5-minute incubation, add 5 μL of stop solution with a multichannel pipet touching the tip to the liquid. Then mix 35 μL 5 times without creating bubbles and set timer to 2 mins.)
The plates were sealed and stored at −20° C. until cDNA synthesis. Optionally they were placed on ice to allow for directly moving to the cDNA synthesis.
cDNA Synthesis: The cell lysate plates were thawed on ice if necessary and mixed 4 times with a multi-channel pipette. 4 μL of Superscript IV VILO and 6 μL of Nuclease free water were combined together for each sample. The mixture was poured into a reservoir and 10 μL was pipetted into each well of a 96-well PCR plate. 10 μL of lysate prepared previously was added and mixed 5 times. The wells were completely sealed, especially around the edges, with plate sealing film using the plate sealing paddle. The PCR plate was centrifuged to pull down the sample to the bottom of the wells. The lysate plate was sealed and returned to the −20° C. freezer as soon as possible. The PCR plate was placed in the thermal cycler and run at 20 μL at 25° C. for 10 minutes, 50° C. for 10 minutes, 85° C. for 5 minutes and then 4° C.
Real Time PCR: The cDNA plate was thawed at room temperature when necessary and 30 μL nuclease free water was added to each cell lysate, followed by mixing, up and down 4 times with a pipette. The primers were thawed for the genes of interest—both housekeeping gene (HKG) and gene(s) of interest (GOI).
A template was prepared and the number of wells needed for each gene of interest (GOI) calculated. Each sample required 2 μL of cDNA, 5 μL of Taqman Master Mix, 0.16667 μL of GOI at 60 times concentration, 0.16667 μL of HKG at 60 times concentration and 2.6667 μL of nuclease free water. If genes at 20 times concentration were used, then 2 μL cDNA, 5 μL Taqman Master Mix, 0.5 GOI, 0.5 μL HKG and 2 μL of nuclease free water were combined for each well.
After calculating the number of wells for each gene, GOI, HKG, Taqman Master Mix and Nuclease free water were combined. 8 μL were pipetted in to each well of the 384-well PCR plate as detailed in the template. […]

[5] = target: HIS-Keap1 full length / Biotin-Nrf2 (16-mer) (Homo sapiens, UniProt Q14145); assay: biochemical
[6] = BEAS+ W, read-out: BEAS+ W EC50
[7] = Homo sapiens, BEAS+ W, read-out: BEAS+ W EC50
[8] = Homo sapiens, BEAS+, read-out: BEAS+ EC50
[9] = Homo sapiens, serum free, read-out: BEAS EC50 (nM) serum free
[10] = serum free, read-out: BEAS EC50 (nM) serum free

Chain of HIS-Keap1 full length / Biotin-Nrf2 (16-mer) (Q14145 whole entry): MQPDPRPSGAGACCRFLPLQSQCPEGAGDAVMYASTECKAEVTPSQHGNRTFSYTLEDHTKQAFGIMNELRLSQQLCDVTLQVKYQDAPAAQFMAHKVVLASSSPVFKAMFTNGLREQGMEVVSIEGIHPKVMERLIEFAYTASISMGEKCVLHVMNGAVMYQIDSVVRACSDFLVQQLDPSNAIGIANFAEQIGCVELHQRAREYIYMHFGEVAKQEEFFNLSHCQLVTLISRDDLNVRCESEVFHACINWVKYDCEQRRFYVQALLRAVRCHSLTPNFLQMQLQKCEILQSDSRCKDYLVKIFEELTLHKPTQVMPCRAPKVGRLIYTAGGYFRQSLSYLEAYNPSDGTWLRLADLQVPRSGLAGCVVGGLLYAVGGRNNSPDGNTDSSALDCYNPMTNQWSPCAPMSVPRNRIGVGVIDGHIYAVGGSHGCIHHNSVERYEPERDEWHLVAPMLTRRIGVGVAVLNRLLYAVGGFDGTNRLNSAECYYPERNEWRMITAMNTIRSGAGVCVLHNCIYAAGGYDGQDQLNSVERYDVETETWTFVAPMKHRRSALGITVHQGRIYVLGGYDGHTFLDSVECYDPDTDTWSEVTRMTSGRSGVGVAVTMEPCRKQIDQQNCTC

| Compound | EC50 ([2]; BEAS+, read-out: BEAS+ EC50) [µM] | EC50 [2, 8] [µM] | EC50 [3, 9] [nM] | EC50 [3, 10] [nM] | EC50 [4] [µM] | IC50 [5] | further results |
| --- | --- | --- | --- | --- | --- | --- | --- |
| amide of methyl 3-(1-(but-3-en-1-yl)-4-methyl-1H-benzo[d][1,2,3]triazol-5-yl)-3-(1,2,3,4-tetrahydroisoquinolin-7-yl)propanoate with 5-(but-3-en-1-yloxy)pyrazine-2-carboxylic acid |  |  |  |  |  |  | ring closure, crude yield ([1]; 23-membered ring, Grubbs catalyst (General procedure 7)): 42% |
| Cc1c2ccc3c1nnn3CCCCCCc1ccc(cc1)C(=O)N1CCc3ccc(cc3C1)[C@H]2[C@@H](C)C(=O)O [Compound 129] | 3.08 | 2.19 | 1360 | 1220 | 0.013 |  | EC50 [2, 6]: 0.0022 µM and 0.0016 µM and 0.0019 µM; EC50 [2, 7]: 0.002 µM |
| amide of benzyl 3-(6-(pent-4-en-1-yloxy)pyridin-3-yl)-3-(1,2,3,4-tetrahydroisoquinolin-7-yl)propanoate with 1-methyl-5-vinyl-1H-pyrrolo[2,3-b]pyridine-2-carboxylic acid |  |  |  |  |  |  | ring closure, crude yield ([1]; 22-membered ring, Grubbs catalyst (General procedure 15)): 51% |
| O=C(O)CC1c2ccc3c(c2)CN(CC3)C(=O)c2ccc(c3ccccc23)OCCCCCCn2nnc3cc1ccc32 (stereo not drawn) [Compound 338] |  | 0.0275 | 25.3 |  | 0.667 | 0.0002 µM and 0.0001 µM |  |
| O=C(O)CC1c2ccc3c(c2)CN(CC3)C(=O)c2c(F)cc(cc2F)CCCCCn2nnc3cc1ccc32 (stereo not drawn) [Compound 241] |  |  |  |  | 0.095 | 0.0004 µM |  |
| Cc1cc2ccc1C(=O)N1CCc3ccc(cc3C1)[C@@H](CC(=O)O)c1ccc3c(nnn3CCCCCC2)c1C [Compound 240] | 0.0006 | 0.001 | 1.1 | 0.6 | 0.018 |  |  |
| amide of 7-(3-methoxy-3-oxo-1-(2-(pent-4-en-1-yloxy)pyrimidin-5-yl)propyl)-1,2,3,4-tetrahydroisoquinolin-2-ium chloride with 4-vinylbenzoic acid |  |  |  |  |  |  | ring closure, crude yield ([1]; 21-membered ring, Grubbs catalyst (General procedure 15)): 20% |
| Cc1c2ccc3c1nnn3CCCCCCOc1ccc(cc1)C(=O)N1CCc3ccc(cc3C1)[C@@H]2[C@@H](C)C(=O)O [Compound 107] | 0.0024 | 0.0032 | 0.6 | 0.4 | 0.038 | 0.0016 µM | EC50 [2, 6]: 0.0327 µM; EC50 [2, 7]: 0.0167 µM; EC50 ([3]; Homo sapiens, Serum Free W, read-out: BEAS EC50 (nM) Serum Free W): 3.6 nM; EC50 ([3]; Serum Free W, read-out: BEAS EC50 (nM) Serum Free W): 4.1 nM |
| COC(=O)CC1c2ccc3c(c2)CN(CC3)C(=O)c2ccc(cc2)C=CCCCOc2cc(C)c1cn2 (stereo not drawn) |  |  |  |  |  |  | ring closure, yield of all isomers (from C=CCCCOc1cc(C)c(C(CC(=O)OC)c2ccc3c(c2)CN(C(=O)c2ccc(C=C)cc2)CC3)cn1, rcm bond, Grubbs catalyst): 64% |
| COC(=O)C[C@@H]1c2ccc3c(c2)CN(CC3)C(=O)c2ccc(cc2)C=CCCCCn2cnc3c(C)c1ccc32 |  |  |  |  |  |  | ring closure, yield of all isomers (from C=CCCCCn1cnc2c(C)c([C@H](CC(=O)OC)c3ccc4c(c3)CN(C(=O)c3ccc(C=C)cc3)CC4)ccc21, rcm bond, Grubbs 2nd generation catalyst, 48.0 h): 27% |
| Cc1c2ccc3c1nnn3CCCCCCc1ccc(cc1)C(=O)N1CCc3ccc(cc3C1)[C@@H]2CC(=O)O (single isomer, unassigned) [Compound 223] |  |  |  |  | 0.015 | 0.5 nM and 0.9 nM and 1.2 nM (2×) |  |
| COC(=O)C[C@H]1c2ccc3c(c2)CN(CC3)C(=O)c2ccc(cc2)CC=CCCCn2nnc3c(C)c1ccc32 |  |  |  |  |  |  | ring closure, yield of all isomers (from C=CCCCn1nnc2c(C)c([C@@H](CC(=O)OC)c3ccc4c(c3)CN(C(=O)c3ccc(CC=C)cc3)CC4)ccc21, rcm bond, Grubbs catalyst): 99% |
| O=C(O)CC1c2ccc(nc2)OCCCCOc2ccc(cc2)C(=O)N2CCc3ccc1cc3C2 (stereo not drawn) [Compound 211, 2-(4-oxo-31,32,33,34-tetrahydro-6,11-dioxa-3(7,2)-isoquinolina-1(5,2)-pyridina-5(1,4)-benzenacycloundecaphane-2-yl)acetic Acid] | 1.73 | 2.21 | 829 | 574 |  | 0.0107 µM and 0.0245 µM | ring closure, yield of all isomers (from COC(=O)CC(c1ccc(OCCCCOc2ccc(C(=O)OC(C)(C)C)cc2)nc1)c1ccc2c(c1)CN(C(=O)OC(C)(C)C)CC2, amide bond, 3 steps): 7.8% |
